Test system: primary cultures of rat hippocampus neurons
Test: release of [3H]-L-glutamate from primary cultures of rat hippocampus neurons (neuronal exocytosis)
Type: cell-based
Method: Assay of the Activity of the Irreversibly Chemically Modified Peptides Derived from the SNAP-25 Protein on the Neuronal Exocytosis of [^3H]-L-Glutamate
The exocytosis of this neurotransmitter in neuronal cultures can be obtained by means of electric depolarization of the cells. The primary cultures of rat embryonic hippocampus are prepared using conventional methods [Blanes-Mira C., Merino J. M., Valera E., Fernández-Ballester G., Gutiérrez L. M., Viniegra S., Pérez-Payá E. and Ferrer-Montiel A. “Small peptides patterned after the N-terminus domain of SNAP25 inhibit SNARE complex assembly and regulated exocytosis” J. Neurochem. 88, 124-135] and are maintained in culture for 14 days in an incubator at 37° C. and 5% CO2. The cultures are incubated with [^3H]-L-glutamine in order to load them with [^3H]-L-glutamate for 3 h at 37° C. The excess [^3H]-L-glutamine is subsequent washed off and they are incubated with 0.1 mM of the peptides to be studied for 1 h at 37° C. The [^3H]-L-glutamate is released by means of depolarization with 75 mM KCl and 2 mM CaCl2 buffered in physiological buffer for 10 min at 37° C. The culture medium is collected and the amount of [^3H]-L-glutamate is quantified in a beta radiation meter. The results are normalized with regard to the release of [^3H]-L-glutamate in the absence of the peptide and corrected from the basal release in the absence of calcium.

## SEQ ID No.11: unmodified peptide derived from the amino acid sequence of the SNAP-25 protein, residues 12 to 17 (EEMQRR) (listed as Homo sapiens)
Compared with modified peptides at 0.1 mM, in the range of 30 times greater
  concentration required to reach inhibition levels comparable to those of the irreversibly modified peptides: ~3 mM
Peptide 0.1 mM, 1 h at 37° C., depolarization with 75 mM KCl and 2 mM CaCl2, FIG. 1
  inhibition of the release of [3H]-L-glutamate: 5%

— patent US9464129B2, “Neuronal exocytosis inhibiting peptides” (BCN PEPTIDES S.A., priority 2006, dated 2016)
